≈ marks a conversion by molar mass, not a printed value. Where “and” joins values, the source holds several entries; their conditions need not be identical. Equal entries are not always repeated. Where two headings read alike, the source gives them in different places.
Assays:
[1] = biological target: T1, rat lens aldose reductase (rAR) (Rattus norvegicus, UniProt P07943); assay: Rat lens aldose reductase (rAR) inhibition, DL-glyceraldehyde substrate, NADPH decrease at 340 nm; type: biochemical; conditions: for IC50: Table 2 experiment
T1 construct: The rat lens homogenate was prepared according to the method of Hayman and Kinoshita with some modifications; from tissue; host or cells: lenses of Sprague-Dawley rats (homogenate supernatant)
Procedure: The rat lens homogenate was prepared according to the method of Hayman and Kinoshita with some modifications. Non-cataractous transparent lenses were pooled and homogenate was prepared in 0.1 M phosphate buffer saline (pH 6.2). After centrifugation at 10,000 rpm for 20 min in a refrigerated centrifuge, the supernatant, which was then collected and as the rAR, all procedures were carried out at 4 °C.
Each 1.0 mL cuvette contained equal units of the enzyme, 0.10 M sodium phosphate buffer (pH 6.2), 0.3 mM NADPH, with or without 10 mM of the substrate and an inhibitor [10, 36].

[2] = ABTS^+ radical assay (antioxidant)
Procedure: The method of Re et al., [39] was used with slight modifications. ABTS diammonium salt (2 mM) and potassium persulfate (3.5 mM) were mixed, diluted in distilled water and kept in the dark at room temperature for 24 h before use. After addition of ABTS^+ solution to 10 µL of antioxidant compounds were recorded at after 10 min reaction. […] Trolox was used as positive control.

[3] = biological target: T2, recombinant human aldose reductase (rhAR) (Homo sapiens, UniProt P15121); assay: Kinetic analysis of aldose reductase inhibition (Lineweaver-Burk plots); type: biochemical; conditions: for type of inhibition: Lineweaver-Burk plots, Km unchanged, Vmax decreased; for Ki: from secondary Lineweaver-Burk plots, DL-glyceraldehyde 0.1-1 mM, read-out: inhibitory constant (Ki)
T2 construct: purchased Wako Pure Chemical Industries (Osaka, Japan)
Procedure: Reaction mixtures consisted of 0.1 M potassium phosphate, 0.16 mM NADPH, […] of recombinant human aldose reductase (rhAR) with varied concentrations of substrate DL-glyceraldehyde and AR inhibitor in a total volume of 200 µL. Concentrations were ranged from 0.1 to 1 mM for DL-glyceraldehyde, from 0.1 to 1 mM for active compound. Recombinant human aldose reductase activity was assayed spectrophotometrically by measuring the decrease in absorption of NADPH at 340 nm after substrate addition using a Bio Tek Power Wave XS spectrophotometer (Bio Tek Instruments, Winooski, VT, USA).

[4] = test system: rat erythrocyte; assay: Galactitol accumulation in rat erythrocytes incubated with galactose; type: cell-based; conditions: 30 mM galactose; for Rat Erythrocyte Galactitol Content: 5 µg/mL compound, control 86.70 ± 1.61; for decrease of galactitol accumulation in rat erythrocyte: 5 µg/mL
Procedure: Blood sample was collected in heparin containing polypropylene tube from 10-week-old male rats. For sugar and sugar alcohol analysis, erythrocytes from heparinized blood were separated from the plasma and buffy coat by centrifuging at 2000× g for 10 min. The cells were washed thrice with normal saline (0.9% NaCl) at 4 °C. In the final washing, the cells were centrifuged at 2000× g for 10 min to obtain a consistently packed cell preparation. The packed cells (1 mL) were then incubated in a Krebs-Ringer bicarbonate buffer (pH 7.4) containing 30 mM galactose in the presence or absence of samples at 37 °C in 5% CO2 for 3 h. The erythrocytes were washed with cold saline by centrifuging at 2000× g for 10 min, precipitated by adding 6% of cold perchloric acid (3 mL), and centrifuged again at 2000× g for 10 min. The supernatant was neutralized with 2.5 M K2CO3 at 4 °C and used for galactitol determination. HPLC analysis for sugar and sugar alcohol in blood was performed with this supernatant of red blood cell homogenate after being benzoylated.

[5] = test system: rat lenses; assay: Galactitol accumulation in cultured isolated rat lenses (ex vivo); type: cell-based; conditions: for Galactitol Content µg/lens Wet Weight (g): 5 µg/mL compound, control 250.47 ± 5.01; for inhibition at 5 µg/mL: Rattus norvegicus, 144 h, read-out: inhibition of galactitol accumulation in isolated rat lenses; for effect on polyol accumulation in rat lenses: conclusion statement
Procedure: Lenses isolated from 10-week-old male rats were cultured for 6 days in TC-199 medium that contained 15% fetal bovine serum 100 units/mL penicillin and 0.1 mg/mL streptomycin under sterile conditions in an atmosphere of 5% CO2 and 95% air at 37 °C. Samples were dissolved in dimethyl sulfoxide. The lenses were divided into five groups and cultured in medium containing 5 mM glucose, 30 mM galactose and rosmarinic acid or caffeic acid ethylene ester. Each lens was placed in well containing 1.0 mL of medium. Galactitol was determined by HPLC after its derivatization by reaction with benzoic acid to a fluorescent compound [37].

[6] = Table 2, read-out: Inhibition (%) of rAR
[7] = 5 µg/mL, 30 mM galactose, 6 days
[8] = Table 1, read-out: Aldose Reductase Inhibition (%)
[9] = read-out: IC50 (rAR), isolated constituents (converted)

| Structure (SMILES) | inhibition at 10 µg/mL ([1]; Table 2) [%] | Inhibition (%) of ABTS^+ ([2]; Table 5, 16.67 µg/mL) [%] | inhibition at 0.5 µg/mL [1, 6] [%] | inhibition at 1 µg/mL [1, 6] [%] | inhibition at 5 µg/mL ([1]; Table 2) [%] | IC50 ([2]; Table 5) [µM] | IC50 (ABTS^+) ([2]; Table 5) [µg/mL] | Inhibition (%) of ABTS^+ ([2]; Table 5, 1.67 µg/mL) [%] | Inhibition (%) of ABTS^+ ([2]; Table 5, 3.33 µg/mL) [%] | Inhibition (%) of ABTS^+ ([2]; Table 5, 8.33 µg/mL) [%] | IC50 [1, 9] | further results |
| --- | --- | --- | --- | --- | --- | --- | --- | --- | --- | --- | --- | --- |
| O=c1cc(-c2ccc(O)cc2)oc2c([C@@H]3O[C@H](CO)[C@@H](O)[C@H](O)[C@H]3O)c(O)cc(O)c12 [Compound 4, vitexin] | 48.5 ± 0.87 | 46.17 ± 2.65 | – | – | – | – | – | – | – | – | – | – |
| O=c1cc(-c2ccc(O)c(O)c2)oc2cc(O)c([C@@H]3O[C@H](CO)[C@@H](O)[C@H](O)[C@H]3O)c(O)c12 [Compound 3, isoorientin] | – | – | 37.23 ± 0.37 | 57.6 ± 0.58 | 77.73 ± 0.77 | 14.6 ± 1.18 | 6.53 ± 0.53 (≈ 14.6 µM) | 17.87 ± 3.08 | 31.69 ± 4.94 | 60.92 ± 2.81 | – | IC50 ([1]; IC50 (rAR), isolated constituents): 1.92 µM; type of inhibition [3]: noncompetitive inhibitors; Ki [3]: 5.88 µM; Rat Erythrocyte Galactitol Content [4]: 56.18 ± 1.00 µM; decrease of galactitol accumulation in rat erythrocyte [4]: 35.2%; Galactitol Content µg/lens Wet Weight (g) ([5]; 30 mM galactose, 6 days): 243.14 ± 4.71 µg/lens Wet Weight (g); inhibition at 5 µg/mL [5, 7]: 2.7%; effect on polyol accumulation in rat lenses [5]: prevented the accumulation of sorbitol in rat lenses |
| Cc1c(C)c2c(c(C)c1O)CCC(C)(C(=O)O)O2 (stereo not drawn) [Trolox, reference compound] | – | – | – | – | – | – | – | – | – | – | – | IC50 ([2]; Table 4): 11.49 ± 0.04 µM; IC50 (ABTS^+) ([2]; Table 4): 2.87 ± 0.01 µg/mL (≈ 11.5 µM); Inhibition (%) of ABTS^+ ([2]; Table 4, 1.67 µg/mL): 27.07 ± 1.15%; Inhibition (%) of ABTS^+ ([2]; Table 4, 3.33 µg/mL): 57.40 ± 2.03%; Inhibition (%) of ABTS^+ ([2]; Table 4, 8.33 µg/mL): 92.92 ± 0.06% |
| COc1cc(C=CC(=O)OC2OC(CO)C(O)C(O)C2O)ccc1O [Compound 9, 1-O-feruloyl-D-glucoside] | 4.06 ± 0.4 | 59.10 ± 2.55 | – | – | – | 37.4 ± 0.64 | 13.31 ± 0.23 (≈ 37.4 µM) | – | 13.51 ± 1.62 | 35.36 ± 1.54 | – | – |
| N[C@@H](Cc1c[nH]c2ccccc12)C(=O)O [Compound 1, tryptophan] | 20 ± 2.01 | 37.51 ± 2.93 | – | – | – | – | – | – | – | – | – | – |
| O=C(/C=C/c1ccc(O)c(O)c1)O[C@H](Cc1ccc(O)c(O)c1)C(=O)O [Compound 8, rosmarinic acid] | – | – | 18.3 ± 0.19 | 62.79 ± 0.6 | 87.33 ± 0.87 | 19.2 ± 1.69 | 6.91 ± 0.61 (≈ 19.2 µM) | 16.20 ± 3.85 | 23.61 ± 2.27 | 60.25 ± 4.66 | – | – |
| O=c1c(O)c(-c2ccc(O)c(O)c2)oc2cc(O)cc(O)c12 [Quercetin, quercetin, reference compound] | – | – | 26.3 ± 0.59 | 48.6 ± 1.44 | 81.14 ± 0.81 | – | – | – | – | – | – | inhibition at 0.5 µg/mL [1, 8]: 31.62 ± 0.09%; inhibition at 1 µg/mL [1, 8]: 48.9 ± 0.51%; inhibition at 2.5 µg/mL [1, 8]: 69.6 ± 0.72%; Rat Erythrocyte Galactitol Content [4]: 45.17 ± 0.81 µM; decrease of galactitol accumulation in rat erythrocyte [4]: 47.9%; Galactitol Content µg/lens Wet Weight (g) ([5]; 30 mM galactose, 6 days): 241.07 ± 4.57 µg/lens Wet Weight (g); inhibition at 5 µg/mL [5, 7]: 3.8%; IC50 ([2]; Table 4): 3.2 ± 0.12 µM; IC50 (ABTS^+) ([2]; Table 4): 0.97 ± 0.04 µg/mL (≈ 3.21 µM); Inhibition (%) of ABTS^+ ([2]; Table 4, 0.33 µg/mL): 22.98 ± 3.55%; Inhibition (%) of ABTS^+ ([2]; Table 4, 0.83 µg/mL): 42.49 ± 3.39%; Inhibition (%) of ABTS^+ ([2]; Table 4, 1.67 µg/mL): 81.36 ± 1.75% |
| O=C(C=Cc1ccc(O)c(O)c1)OC1OC(CO)C(O)C(O)C1O [Compound 10, 1-O-caffeoyl-D-glucoside] | 73.2 ± 0.99 | – | – | – | 55.6 ± 0.78 | 23.5 ± 1.43 | 8.04 ± 0.49 (≈ 23.5 µM) | 14.07 ± 0.39 | 29.84 ± 1.19 | 50.87 ± 1.30 | 14.1 µM | inhibition at 2.5 µg/mL [1, 6]: 24.7 ± 0.36% |
| O=c1cc(-c2ccc(O)cc2)oc2cc(O)c([C@@H]3O[C@H](CO)[C@@H](O)[C@H](O)[C@H]3O)c(O)c12 [Compound 5, isovitexin] | 76.59 ± 0.74 | 44.40 ± 4.91 | – | 23.3 ± 0.25 | 60.3 ± 0.61 | – | – | – | – | – | 7.35 µM and 7.36 µM | – |
| O=c1cc(-c2ccc(O)c(O)c2)oc2cc(O[C@@H]3O[C@H](CO)[C@@H](O)[C@H](O)[C@H]3O)cc(O)c12 [Compound 6, luteolin-7-O-glucoside] | 76.2 ± 0.77 | – | – | 19.1 ± 0.21 | 61.88 ± 0.6 | 17.8 ± 1.51 | 8.00 ± 0.68 (≈ 17.8 µM) | 13.49 ± 1.09 | 22.66 ± 2.47 | 52.11 ± 3.98 | 7.47 µM | – |
| C[C@@H]1O[C@@H](OC[C@H]2O[C@@H](Oc3cc(O)c4c(=O)cc(-c5ccc(O)c(O)c5)oc4c3)[C@H](O)[C@@H](O)[C@@H]2O)[C@H](O)[C@H](O)[C@H]1O [Compound 7, luteolin-7-O-rutinoside] | – | 79.82 ± 0.67 | 29.9 ± 0.3 | 40.31 ± 0.4 | 72.7 ± 0.73 | 15.8 ± 0.8 | 9.38 ± 0.47 (≈ 15.8 µM) | – | 21.44 ± 1.46 | 49.55 ± 3.91 | 2.59 µM | – |
| O=c1cc(-c2ccc(O)c(O)c2)oc2c([C@@H]3O[C@H](CO)[C@@H](O)[C@H](O)[C@H]3O)c(O)cc(O)c12 [Compound 2, orientin] | – | – | 35.3 ± 0.36 | 64.57 ± 0.52 | 94 ± 0.98 | 12.5 ± 0.95 | 5.59 ± 0.42 (≈ 12.5 µM) | 17.56 ± 2.21 | 31.76 ± 3.19 | 72.55 ± 4.10 | 1.65 µM | type of inhibition [3]: noncompetitive inhibitors; Ki [3]: 3.23 µM; Rat Erythrocyte Galactitol Content [4]: 72.72 ± 0.98 µM; decrease of galactitol accumulation in rat erythrocyte [4]: 16.1%; Galactitol Content µg/lens Wet Weight (g) ([5]; 30 mM galactose, 6 days): 227.89 ± 4.52 µg/lens Wet Weight (g); inhibition at 5 µg/mL [5]: 9.1%; effect on polyol accumulation in rat lenses [5]: prevented the accumulation of sorbitol in rat lenses |

— paper PMC6271131, “Inhibitory Effects of Colocasia esculenta (L.) Schott Constituents on Aldose Reductase” (Molecules, 2014)
